For 39 compounds, IC50 results are on record in US20250011331A1 (Nimbus Saturn, Inc., priority 2021, published 2025).

What is called IC50 is the midpoint of a concentration-inhibition curve.

T1 sequence (Q92918 whole entry): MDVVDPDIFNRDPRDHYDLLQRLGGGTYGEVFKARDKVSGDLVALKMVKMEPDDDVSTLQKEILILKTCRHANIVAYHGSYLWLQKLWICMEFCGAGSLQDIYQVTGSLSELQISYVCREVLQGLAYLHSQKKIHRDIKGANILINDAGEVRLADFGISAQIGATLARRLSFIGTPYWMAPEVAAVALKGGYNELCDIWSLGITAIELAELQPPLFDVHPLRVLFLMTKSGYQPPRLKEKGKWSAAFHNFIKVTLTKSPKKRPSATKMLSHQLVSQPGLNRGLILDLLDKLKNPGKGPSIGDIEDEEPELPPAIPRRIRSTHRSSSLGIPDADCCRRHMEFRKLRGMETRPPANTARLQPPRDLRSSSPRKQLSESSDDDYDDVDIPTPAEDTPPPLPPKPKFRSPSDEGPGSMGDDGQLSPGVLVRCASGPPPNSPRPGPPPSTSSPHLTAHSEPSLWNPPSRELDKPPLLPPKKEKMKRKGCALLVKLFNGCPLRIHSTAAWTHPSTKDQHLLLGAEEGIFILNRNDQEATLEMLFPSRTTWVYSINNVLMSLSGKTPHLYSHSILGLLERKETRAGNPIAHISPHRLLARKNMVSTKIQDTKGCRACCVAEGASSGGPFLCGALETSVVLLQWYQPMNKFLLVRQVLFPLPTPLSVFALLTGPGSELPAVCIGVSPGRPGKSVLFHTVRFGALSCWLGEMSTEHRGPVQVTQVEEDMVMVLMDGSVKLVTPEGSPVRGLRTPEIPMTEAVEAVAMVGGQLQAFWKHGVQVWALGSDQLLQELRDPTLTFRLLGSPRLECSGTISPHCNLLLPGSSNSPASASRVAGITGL

The test addresses T1, HPK1 (Homo sapiens, UniProt Q92918).
T1 construct: purchased Invitrogen
Briefly: HPK1 biochemical enzyme assay (microfluidic mobility shift). Conditions: 1.5 nM HPK1 (Invitrogen), 1 mM ATP, 30 min preincubation, 60 min at RT, Caliper EZ Reader. The protocol: HPK1 biochemical enzyme assay: HPK1 enzyme inhibition was measured using a microfluidic mobility shift assay. Reactions were performed in a 384-well plate, containing 1.5 nM HPK1 (Invitrogen), in assay buffer (Cama Biosciences; pH 7.4). Test compounds were titrated in ten point curves (top final assay concentration 3 μM), and preincubated with enzyme/substrate mix for 30 min prior to initiation of the reaction by addition of ATP (1 mM final concentration) and substrate (1 μM final concentration; Carna Biosciences) diluted in assay buffer supplemented by MgCl2 (final assay concentration of 5 mM). Following 60 min incubation at RT, the reaction was terminated by addition of 60 μl/well termination buffer (Carna Biosciences) and signal determination using a Caliper EZ Reader (Perkin Elmer, UK).
As for `CN(C)Cc1nc(Nc2ccc(-c3cnc4cc(F)ccn34)c3c2C(=O)NC3)ccc1[C@@]1(C)CCCO1` (single isomer, unassigned) [Compound I-5], the IC50 is at most 100 nM.

Regarding `CN(C)Cc1nc(Nc2ccc(-c3cnc4cc(F)ccn34)c3c2C(=O)NC3)ccc1[C@]1(C)CCCO1` (single isomer, unassigned) [Compound I-6], the IC50 is at most 100 nM.

Turning to `CN(C)Cc1nc(Nc2ccc(-c3cnc4cc(F)ccn34)c3c2C(=O)NC3)ccc1[C@H]1COCCO1` (single isomer, unassigned) [Compound I-14], the IC50 was at most 100 nM.

In the case of `CN(C)Cc1nc(Nc2ccc(-c3cnc4cc(F)ccn34)c3c2C(=O)NC3)ccc1[C@@H]1COCCO1` (single isomer, unassigned) [Compound I-15], the IC50 is at most 100 nM.

As to `CN1CCN(C(=O)[C@@H]2CCOC2)c2ccc(Nc3ccc(-c4cnc5cc(F)ccn45)c4c3C(=O)NC4)nc2C1` (single isomer, unassigned) [Compound I-17], the IC50 fell in the range of 100 to 1000 nM.

Take `CN1CCN(C(=O)[C@H]2CCOC2)c2ccc(Nc3ccc(-c4cnc5cc(F)ccn45)c4c3C(=O)NC4)nc2C1` (single isomer, unassigned) [Compound I-18]: the IC50 fell in the range of 100 to 1000 nM.

As for `CO[C@@]1(c2ccc(Nc3ccc(-c4cnc5cc(F)ccn45)c4c3C(=O)NC4)nc2CN(C)C)CCOC1` (single isomer, unassigned) [Compound I-20], the IC50 is at most 100 nM.

As for `CO[C@]1(c2ccc(Nc3ccc(-c4cnc5cc(F)ccn45)c4c3C(=O)NC4)nc2CN(C)C)CCOC1` (single isomer, unassigned) [Compound I-21], the IC50 is at most 100 nM.

For the compound `C[C@@H](OC1CCOCC1)c1ccc(Nc2ccc(-c3cnc4cc(F)ccn34)c3c2C(=O)NC3)nc1CN(C)C` (single isomer, unassigned) [Compound I-24], the IC50 is at most 100 nM.

For the compound `C[C@H](OC1CCOCC1)c1ccc(Nc2ccc(-c3cnc4cc(F)ccn34)c3c2C(=O)NC3)nc1CN(C)C` (single isomer, unassigned) [Compound I-26], the IC50 was at most 100 nM.

In the case of `Cc1cncc2ncc(-c3ccc(Nc4ccc([C@@H]5CCOC5)c(CN(C)C)n4)c4c3CNC4=O)n12` (single isomer, unassigned) [Compound I-27], the IC50 was at most 100 nM.

For `Cc1cncc2ncc(-c3ccc(Nc4ccc([C@H]5CCOC5)c(CN(C)C)n4)c4c3CNC4=O)n12` (single isomer, unassigned) [Compound I-28], the IC50 was at most 100 nM.

Turning to `C[C@H](OC[C@H]1COCCO1)c1ccc(Nc2ccc(-c3cnc4cc(F)ccn34)c3c2C(=O)NC3)nc1CN(C)C` (single isomer, unassigned) [Compound I-33], the IC50 was at most 100 nM.

For the compound `C[C@@H](OC[C@H]1COCCO1)c1ccc(Nc2ccc(-c3cnc4cc(F)ccn34)c3c2C(=O)NC3)nc1CN(C)C` (single isomer, unassigned) [Compound I-34], the IC50 is at most 100 nM.

As to `CN(C)Cc1nc(Nc2ccc(-c3cnc4cc(C#N)ccn34)c3c2C(=O)NC3)ccc1C1CCOC1` (single isomer, unassigned) [Compound I-38, 3-(7-((6-((dimethylamino)methyl)-5-(tetrahydrofuran-3-yl)pyridin-2-yl)amino)-1-oxoisoindolin-4-yl)imidazo[1,2-a]pyridine-7-carbonitrile], the IC50 was at most 100 nM.

For `CN(C)Cc1cc(C2CCOC2)cc(Nc2ccc(-c3cnc4cc(F)ccn34)c3c2C(=O)NC3)n1` (single isomer, unassigned) [Compound I-45], the IC50 was at most 100 nM.

As to `CN(C)Cc1nc(Nc2ccc(-c3cnc4cc(F)ccn34)c3c2C(=O)NC3)ccc1[C@H]1CC[C@@H](O)C1` [Compound I-1, 7-((6-((dimethylamino)methyl)-5-((1S,3R)-3-hydroxycyclopentyl)pyridin-2-yl)amino)-4-(7-fluoroimidazo[1,2-a]pyridin-3-yl)isoindolin-1-one], the IC50 was at most 100 nM.

Regarding `CN(C)Cc1nc(Nc2ccc(-c3cnc4cc(F)ccn34)c3c2C(=O)NC3)ccc1[C@@H]1CC[C@H](O)C1` [Compound I-2, 7-((6-((dimethylamino)methyl)-5-((1R,3S)-3-hydroxycyclopentyl)pyridin-2-yl)amino)-4-(7-fluoroimidazo[1,2-a]pyridin-3-yl)isoindolin-1-one], the IC50 was at most 100 nM.

`CN(C)Cc1nc(Nc2ccc(-c3cnc4cc(F)ccn34)c3c2C(=O)NC3)ccc1[C@H]1CC[C@H](O)C1` [Compound I-3, 7-((6-((dimethylamino)methyl)-5-((1S,3S)-3-hydroxycyclopentyl)pyridin-2-yl)amino)-4-(7-fluoroimidazo[1,2-a]pyridin-3-yl)isoindolin-1-one]: the half-inhibitory concentration (IC50) was at most 100 nM.

In the case of `CN(C)Cc1nc(Nc2ccc(-c3cnc4cc(F)ccn34)c3c2C(=O)NC3)ccc1C1(C)CCOCC1` [Compound I-4, 7-((6-((dimethylamino)methyl)-5-(4-methyltetrahydro-2H-pyran-4-yl)pyridin-2-yl)amino)-4-(7-fluoroimidazo[1,2-a]pyridin-3-yl)isoindolin-1-one], the IC50 was at most 100 nM.

For `C[C@H](c1nc(Nc2ccc(-c3cnc4cc(F)ccn34)c3c2C(=O)NC3)ccc1C1CCOCC1)N(C)C` [Compound I-7, (R)-7-((6-(1-(dimethylamino)ethyl)-5-(tetrahydro-2H-pyran-4-yl)pyridin-2-yl)amino)-4-(7-fluoroimidazo[1,2-a]pyridin-3-yl)isoindolin-1-one], the IC50 was 100 to 1000 nM.

On to `C[C@@H](c1nc(Nc2ccc(-c3cnc4cc(F)ccn34)c3c2C(=O)NC3)ccc1C1CCOCC1)N(C)C` [Compound I-8, (S)-7-((6-(1-(dimethylamino)ethyl)-5-(tetrahydro-2H-pyran-4-yl)pyridin-2-yl)amino)-4-(7-fluoroimidazo[1,2-a]pyridin-3-yl)isoindolin-1-one], for which the IC50 is at most 100 nM.

Regarding `C[C@@H](O)c1ccc(Nc2ccc(-c3cnc4cc(F)ccn34)c3c2C(=O)NC3)nc1CN(C)C` [Compound I-9, (R)-7-((6-((dimethylamino)methyl)-5-(1-hydroxyethyl)pyridin-2-yl)amino)-4-(7-fluoroimidazo[1,2-a]pyridin-3-yl)isoindolin-1-one], the IC50 is at most 100 nM.

As for `C[C@H](O)c1ccc(Nc2ccc(-c3cnc4cc(F)ccn34)c3c2C(=O)NC3)nc1CN(C)C` [Compound I-10, (S)-7-((6-((dimethylamino)methyl)-5-(1-hydroxyethyl)pyridin-2-yl)amino)-4-(7-fluoroimidazo[1,2-a]pyridin-3-yl)isoindolin-1-one], the IC50 was at most 100 nM.

For `CN(C)Cc1nc(Nc2ccc(-c3cnc4cnccn34)c3c2C(=O)NC3)ccc1OCC1CCC(F)(F)CC1` [Compound I-11], the IC50 is at most 100 nM.

`CN(C)CCc1nc(Nc2cnc(-c3ccnc4c3ccn4C)c3c2C(=O)NC3)ccc1C1CCOCC1` [Compound I-13, 7-((6-(2-(dimethylamino)ethyl)-5-(tetrahydro-2H-pyran-4-yl)pyridin-2-yl)amino)-4-(1-methyl-1H-pyrrolo[2,3-b]pyridin-4-yl)-2,3-dihydro-1H-pyrrolo[3,4-c]pyridin-1-one]: the IC50 is at most 100 nM.

With `CN1CCCC1c1nc(Nc2ccc(-c3cnc4cc(F)ccn34)c3c2C(=O)NC3)ccc1C1CCOC1` (stereo not drawn) [Compound I-16], the IC50 is 100 to 1000 nM.

In the case of `CO[C@H]1C[C@H](Oc2ccc(Nc3ccc(-c4cnc5cc(F)ccn45)c4c3C(=O)NC4)nc2CN(C)C)C1` [Compound I-19], the IC50 was at most 100 nM.

Turning to `CN(C)Cc1nc(Nc2ccc(-c3cnc4cc(F)ccn34)c3c2C(=O)NC3)ccc1C1CCCC1` [Compound I-22], the IC50 is at most 100 nM.

`CN(C)Cc1nc(Nc2ccc(-c3cnc4cc(F)ccn34)c3c2C(=O)NC3)ccc1N1CCOC(C)(C)C1=O` [Compound I-23]: the IC50 is at most 100 nM.

`CN(C)Cc1nc(Nc2ccc(-c3cnc4cc(F)ccn34)c3c2C(=O)NC3)ccc1C(C)(C)N1CCOCC1=O` [Compound I-25]: the IC50 was at most 100 nM.

Consider `C[C@@H](OC1CCC1)c1ccc(Nc2ccc(-c3cnc4cnccn34)c3c2C(=O)NC3)nc1CN(C)C` [Compound I-29], for which the IC50 is at most 100 nM.

With `C[C@H](OC1CCC1)c1ccc(Nc2ccc(-c3cnc4cnccn34)c3c2C(=O)NC3)nc1CN(C)C` [Compound I-30], the IC50 is at most 100 nM.

Consider `COCC1CC(c2ccc(Nc3ccc(-c4cnc5cc(F)ccn45)c4c3C(=O)NC4)nc2CN(C)C)CCO1` (stereo not drawn) [Compound I-32], for which the IC50 was at most 100 nM.

In the case of `CC(c1ccc(Nc2ccc(-c3cnc4cnccn34)c3c2C(=O)NC3)nc1CN(C)C)C1CCOCC1` (stereo not drawn) [Compound I-35], the IC50 is at most 100 nM.

Consider `C[C@@H](c1ccc(Nc2ccc(-c3cnc4cnccn34)c3c2C(=O)NC3)nc1CN(C)C)C1CCOCC1` [Compound I-36], for which the IC50 is at most 100 nM.

As to `C[C@H](c1ccc(Nc2ccc(-c3cnc4cnccn34)c3c2C(=O)NC3)nc1CN(C)C)C1CCOCC1` [Compound I-37], the IC50 was at most 100 nM.

`CN(C)Cc1cc(C2CCOCC2)cc(Nc2ccc(-c3cnc4cc(F)ccn34)c3c2C(=O)NC3)n1` [Compound I-39, 7-((6-((dimethylamino)methyl)-4-(tetrahydro-2H-pyran-4-yl)pyridin-2-yl)amino)-4-(7-fluoroimidazo[1,2-a]pyridin-3-yl)isoindolin-1-one]: the IC50 was at most 100 nM.

Regarding `CN(C)Cc1nc(Nc2ccc(-c3cnc4cc(F)ccn34)c3c2C(=O)NC3)ccc1OC1CC2(COC2)C1` [Compound I-40, 7-((5-((2-oxaspiro[3.3]heptan-6-yl)oxy)-6-((dimethylamino)methyl)pyridin-2-yl)amino)-4-(7-fluoroimidazo[1,2-a]pyridin-3-yl)isoindolin-1-one], the IC50 was at most 100 nM.
